The term IC50 denotes the concentration needed to halve the response being measured.

Each structure is given as a SMILES string.

The target in the assay is T1, human HSL (Homo sapiens, UniProt Q05469).
T1 construct: generate a full length human HSL ORF with a 3′-His6 tag; made in house; host or cells: High 5 insect cells (baculovirus, pFast-BAC)
T1 sequence (Q05469 1-1076): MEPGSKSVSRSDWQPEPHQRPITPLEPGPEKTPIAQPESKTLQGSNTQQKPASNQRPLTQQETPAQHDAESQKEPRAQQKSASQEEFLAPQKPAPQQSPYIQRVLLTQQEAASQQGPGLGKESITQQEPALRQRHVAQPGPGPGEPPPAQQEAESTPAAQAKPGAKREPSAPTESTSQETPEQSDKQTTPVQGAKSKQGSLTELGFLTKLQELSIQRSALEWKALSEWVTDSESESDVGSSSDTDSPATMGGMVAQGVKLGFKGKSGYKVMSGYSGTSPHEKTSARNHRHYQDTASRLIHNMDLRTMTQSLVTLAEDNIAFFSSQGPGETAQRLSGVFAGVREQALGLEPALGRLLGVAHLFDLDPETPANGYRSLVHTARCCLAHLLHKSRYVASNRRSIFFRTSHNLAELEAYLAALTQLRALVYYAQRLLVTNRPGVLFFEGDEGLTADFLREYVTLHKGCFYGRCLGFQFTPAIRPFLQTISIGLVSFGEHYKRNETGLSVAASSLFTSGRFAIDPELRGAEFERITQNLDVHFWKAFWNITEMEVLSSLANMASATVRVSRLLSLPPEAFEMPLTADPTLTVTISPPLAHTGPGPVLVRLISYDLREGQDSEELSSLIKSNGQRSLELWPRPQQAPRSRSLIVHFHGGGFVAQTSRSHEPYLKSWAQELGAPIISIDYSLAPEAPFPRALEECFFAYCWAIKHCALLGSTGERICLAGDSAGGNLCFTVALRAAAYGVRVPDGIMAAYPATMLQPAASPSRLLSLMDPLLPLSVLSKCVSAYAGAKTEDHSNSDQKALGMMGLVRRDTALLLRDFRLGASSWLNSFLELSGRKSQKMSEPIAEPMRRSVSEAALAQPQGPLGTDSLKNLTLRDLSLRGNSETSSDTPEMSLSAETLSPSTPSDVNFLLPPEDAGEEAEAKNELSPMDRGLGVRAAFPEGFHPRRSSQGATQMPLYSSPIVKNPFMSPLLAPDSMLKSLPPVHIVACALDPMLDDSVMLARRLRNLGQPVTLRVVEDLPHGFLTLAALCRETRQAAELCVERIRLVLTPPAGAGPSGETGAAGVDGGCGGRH
Briefly: Human Hormone-Sensitive Lipase (HSL) enzyme inhibition assay (colorimetric, DMPT substrate). To be noted: human full length HSL-His6, 2,3-dimercapto-1-propanol tributyrate substrate, 37° C. 20 minutes, absorbance at 405 nm; read-out: HSL hum IC50. The format is biochemical. The protocol:
Production of Human Full Length Hormone Sensitive Lipase-His^6:
1) Cloning: cDNA was prepared from commercial human brain polyA+ RNA and used as a template in overlapping PCR to generate a full length human HSL ORF with a 3′-His6 tag. This full length insert was cloned into the pFast-BAC vector and the DNA-sequence of several single clones was verified. DNA from a correct full length clone with the 3′His6 tag was used to transform the E. coli strain DH10BAC. Resulting bacmid DNA was used to generate a titered baculovirus stock for protein generation. The sequence of the encoded HSL conforms to Swissprot entry Q05469, with the additional C-terminal His6-tag. 2) Protein purification: Culture: 5.5 L, High 5 cells expressing human full length HSL-His^6, 48 hr., containing 25 μM E-64. Cell count: […], 90% viable. Cells were thawed. On ice, cells were suspended in Base Buffer containing 10% glycerol, 25 mM Tris-Cl, 300 mM NaCl, 10 mM imidazole, 10 mM 2-mercaptoethanol, 2 μg pepstatin/ml, 2 μg leupeptin/ml, 2 μg antipain/ml, pH 8.0 at 4° C. in a final volume of 475 ml with 3.75×10^7 cells/ml. […] was done at 3×30 sec., Lubrol PX was added to 0.2% final concentration followed by stirring for 15 min. at 4° C. and centrifugation at 25 k×g, 60 min., 4° C. Soluble proteins were mixed with 60 ml of pre-washed and equilibrated Ni-NTA Agarose (Qiagen 30210) followed by tumbling end-over-end, 45 min., 4° C., centrifugation 1000 rpm 5 min and letting resin settle 5 min. Supernatant was removed, the resin washed in the centrifuge vessel using 5 volumes of Base Buffer containing 0.2% Lubrol PX. Centrifugation was done again, then the supernatant discarded. The resin was poured onto a 0.8 μm membrane in a disposable filter unit (Nalge 450-0080), and washed with 5 volumes of Base Buffer containing 0.2% Lubrol PX. It was then washed with 30 volumes of Base Buffer containing 60 mM imidazole pH 7.5 at 4° C. The protein was eluated with 5 volumes of 25 mM Tris-Cl, 300 mM NaCl, 200 mM imidazole, 10 mM 2-mercaptoethanol, pH 7.5 at 4° C. by tumbling resin with buffer end-over-end, 30 min., 4° C. The resin was captured on a 0.2 μm membrane disposable filter unit (Millipore SCGP U02 RE) and the eluate collected in the reservoir. The eluate was concentrated using a 30 k MWCO centrifugal filter device (Sartorius Vivascience Vivacell 100, VC1022), to 20 ml. It was then dialyzed overnight at 4° C., two times against 2 L of 10% glycerol, 25 mM Tris-Cl, 300 mM NaCl, 0.2 mM EDTA, 0.2 mM DTT, pH 7.5 at 4° C. The protein was filtered using a 0.22 μm disposable filter unit (Millipore SCGP00525). The protein concentration was calculated from absorbance at 280 nm, using 280=0.67 cm-1 mg-1. Yield was 235 mg, total. The protein was stored at −80° C. Human Hormone-Sensitive Lipase (HSL) Enzyme Inhibition Assay:
HSL enzyme activity was measured by a colorimetric assay using 2,3-dimercapto-1-propanol tributyrate (Aldrich, St. Louis, Mo.) as a substrate. Typically, 1.5 mM 2,3-dimercapto-1-propanol tributyrate (DMPT) in 100 mM MOPS, pH 7.2, 0.2 mg/ml fatty acid-free BSA was prepared by sonication at 4° C. to homogenous suspension. Test compounds (2 mM stock in DMSO) were diluted 3 fold in series in DMSO. Compound solutions were diluted 24 fold in 1.5 mM DMPT containing solution and 18 ul per well was added to 384-well microplates (Corning Costar). Twelve microliters per well of human HSL (15 ug/ml) was added and the reaction mixture was incubated at 37° C. for 20 minutes. Six microliters of 12 mM dithio-bis-(2-nitrobenzoic acid) (DTNB) in DMSO plus 1.2% SDS and 0.6% Triton X-100 were added and the mixture was incubated at room temperature for 15 minutes. Product production was monitored by reading absorbance at 405 nm on an Envision Reader (PerkinElmer Life and Analytical Sciences, Shelton, Conn.).
On to `C[C@@H](Oc1ccc(N2CC[C@]3(CC[C@](O)(COCC(F)F)CC3)C2=O)cn1)C(F)(F)F` [Example 313, (5α,8β)-8-(2,2-Difluoro-ethoxymethyl)-8-hydroxy-2-[6-((R)-2,2,2-trifluoro-1-methyl-ethoxy)-pyridin-3-yl]-2-aza-spiro[4.5]decan-1-one], for which the IC50 came to 280 nM.

For `C[C@@H](Oc1ccc(N2CC[C@]3(CC[C@](O)(COCC(F)(F)F)CC3)C2=O)cc1)C(F)(F)F` [Example 284, (5α,8β)-8-Hydroxy-8-(2,2,2-trifluoro-ethoxymethyl)-2-[4-((R)-2,2,2-trifluoro-1-methyl-ethoxy)-phenyl]-2-aza-spiro[4.5]decan-1-one], the IC50 amounted to 360 nM.

Take `O=C1CCC2(CC1)CCN(c1ccc(OC(F)(F)F)cc1)C2=O` [Example 54, 2-(4-Trifluoromethoxy-phenyl)-2-aza-spiro[4.5]decane-1,8-dione]: the IC50 was 640 nM.

As to `CCC(O)[C@H]1CC[C@]2(CCN(c3ccc(O[C@H](C)C(F)(F)F)cc3)C2=O)CC1` (stereo partly drawn) [Example 366, (5α,8α)-8-(1-Hydroxy-propyl)-2-[4-((R)-2,2,2-trifluoro-1-methyl-ethoxy)-phenyl]-2-aza-spiro[4.5]decan-1-one], the IC50 is 290 nM.

For `COc1ccc(CCN2CC[C@]3(CC[C@H](O)CC3)C2=O)cc1` [Example 35, (5α,8α)-8-Hydroxy-2-[2-(4-methoxy-phenyl)-ethyl]-2-aza-spiro[4.5]decan-1-one], the IC50 was 16500 nM.

As to `CCc1ccc(N2CC[C@]3(CC[C@@](O)(COCC(F)F)CC3)C2=O)cc1` [Example 265, (5α,8α)-8-(2,2-Difluoro-ethoxymethyl)-2-(4-ethyl-phenyl)-8-hydroxy-2-aza-spiro[4.5]decan-1-one], the IC50 was determined as 40 nM.

Consider `CCC[C@]1(O)CC[C@]2(CCN(c3ccc(O[C@@H](C)C(F)(F)F)cc3)C2=O)CC1` [Example 164a, (5α,8α)-8-Hydroxy-8-propyl-2-[4-((S)-2,2,2-trifluoro-1-methyl-ethoxy)-phenyl]-2-aza-spiro[4.5]decan-1-one], for which the IC50 turned out to be 20 nM.

As to `CCC[C@]1(O)CC[C@]2(CCN(c3ccc(OCCCOC)cc3)C2=O)CC1` [Example 94, (5α,8α)-8-Hydroxy-2-[4-(3-methoxy-propoxy)-phenyl]-8-propyl-2-aza-spiro[4.5]decan-1-one], the IC50 is 80 nM.

Take `CCC[C@]1(O)CC[C@]2(CCN(c3ccc(O[C@H](C)C(F)(F)F)nc3)C2=O)CC1` [Example 176, (5α,8α)-8-Hydroxy-8-propyl-2-[6-((R)-2,2,2-trifluoro-1-methyl-ethoxy)-pyridin-3-yl]-2-aza-spiro[4.5]decan-1-one]: the IC50 was 20 nM.

For the compound `CC[C@]1(O)CC[C@]2(CCN(c3ccc(O[C@H](C)C(F)(F)F)cc3)C2=O)CC1` [Example 165b, (5α,8α)-8-Ethyl-8-hydroxy-2-[4-((R)-2,2,2-trifluoro-1-methyl-ethoxy)-phenyl]-2-aza-spiro[4.5]decan-1-one], the IC50 amounted to 30 nM.

In the case of `CO[C@H](c1ccc(N2CC[C@]3(CC[C@@](O)(COCC(F)(F)F)CC3)C2=O)cc1)C(F)(F)F` [Example 372, (5α,8α)-8-Hydroxy-8-(2,2,2-trifluoro-ethoxymethyl)-2-[4-((R)-2,2,2-trifluoro-1-methoxy-ethyl)-phenyl]-2-aza-spiro[4.5]decan-1-one], the IC50 was determined as 17 nM.

Regarding `CC(C)(O)[C@]1(O)CC[C@]2(CCN(c3ccc(OCC(F)(F)F)cc3)C2=O)CC1` [Example 339, (5α,8α)-8-Hydroxy-8-(1-hydroxy-1-methyl-ethyl)-2-[4-(2,2,2-trifluoro-ethoxy)-phenyl]-2-aza-spiro[4.5]decan-1-one], the IC50 is 120 nM.

In the case of `C[C@@H](Oc1ccc(N2CC[C@]3(CC[C@@](O)(CS(=O)(=O)C(C)(C)C)CC3)C2=O)cn1)C(F)(F)F` [Example 326, (5α,8α)-8-Hydroxy-8-(2-methyl-propane-2-sulfonylmethyl)-2-[6-((R)-2,2,2-trifluoro-1-methyl-ethoxy)-pyridin-3-yl]-2-aza-spiro[4.5]decan-1-one], the IC50 was determined as 10 nM.

`CC(C)COC[C@]1(O)CC[C@@]2(CCN(c3ccc(OCC(F)(F)F)cc3)C2=O)CC1` [Example 245, (5α,8β)-8-Hydroxy-8-isobutoxymethyl-2-[4-(2,2,2-trifluoro-ethoxy)-phenyl]-2-aza-spiro[4.5]decan-1-one]: the IC50 came to 280 nM.

Turning to `CCC[C@]1(O)CC[C@@]2(CCN(c3ccc(OCCC(F)(F)F)cc3)C2=O)CC1` [Example 100, (5α,8β)-8-Hydroxy-8-propyl-2-[4-(3,3,3-trifluoro-propoxy)-phenyl]-2-aza-spiro[4.5]decan-1-one], the IC50 amounted to 360 nM.

As for `CCC[C@]1(O)CC[C@@]2(CCN(c3ccc(OC(F)(F)F)cc3)C2=O)CC1` [Example 56, (5α,8β)-8-Hydroxy-8-propyl-2-(4-trifluoromethoxy-phenyl)-2-aza-spiro[4.5]decan-1-one], the IC50 turned out to be 570 nM.

`O=C1N(c2ccc(OCC(F)(F)F)cc2)CC[C@]12CC[C@](O)(COCc1ccccc1)CC2` [Example 241, (5α,8β)-8-Benzyloxymethyl-8-hydroxy-2-[4-(2,2,2-trifluoro-ethoxy)-phenyl]-2-aza-spiro[4.5]decan-1-one]: the IC50 turned out to be 90 nM.

For `O=C1N(c2ccc(OCC(F)(F)F)cc2)CC[C@]12CC[C@@](O)(COCC1CCC1)CC2` [Example 255, (5α,8α)-8-[(Cyclobutylmethoxy)methyl]-8-hydroxy-2-[4-(2,2,2-trifluoro-ethoxy)-phenyl]-2-aza-spiro[4.5]decan-1-one], the IC50 was 10 nM.

For the origin of these results see US8440710B2, “HSL inhibitors useful in the treatment of diabetes” (Hoffmann-La Roche Inc., priority 2009, dated 2013).
